Peptide text beside a SMILES is read from it.
How the values were obtained:
Type in all cases: cell-based, human
single MCF7 cells = assay: Microfluidics chip single-cell experiment; details: single MCF7 cell in microfluidic chip, peptide 50 µM
Procedure: The AmphiArc2 peptide, the shortest peptide of the low micromolar active peptides, has a high hydrophobic moment (µH = 0.87) and a 180° arc of hydrophobic residues in an idealized helical structure (Fig. 1a). As determined by circular dichroism (CD) spectroscopy, the AmphiArc2 peptide is unstructured in pure water but adopts an alpha-helical structure in a hydrophobic environment (in 50% v/v water:2,2-trifluoroethanol, TFE) (Fig. 1b). […] To further investigate its membranolytic action, we observed the activity of AmphiArc2 on single MCF7 cells entrapped in a microfluidic chip.
The resultant sigmoidal curves were analyzed with the drc22 R package using a log-logistic model with 3 fixed parameters to obtain the HC50 values.
Microfluidics chip experiments
Single cell ACP action was observed on MCF7 cells entrapped in a microfluidic chip following the previously described methodology23. For visualization, cells were stained with calcein-AM at a 1 µM concentration. The calcein-AM penetrates into the cytosol of the cells and it is converted there by intracellular esterases to a fluorescent form that remains encapsulated in the cytosol. […]
in a microfuidic chip chamber after exposure to the AmphiArc2 peptide at a concentration of 50 µM. […] The loss of the cytosolic fluorescence corresponds to a permeabilization of the cell membrane. […]

CAKI-1 = assay: NCI-60 screening; details: CAKI-1 (Renal); log GI50; 48 h, sulforhodamine B, 10^-4 to 10^-8 M
Procedure: (§1) NCI-60 screening procedure
(§2) The NCI-60 screening procedure was performed by the Developmental Therapeutics Program of the National Cancer Institute. The procedure was performed as previously described24 in 96-well microtiter plates. Each peptide was tested in a 5-concentration assay, starting at 10^-4 M and diluting 10-fold to the lowest 10^-8 M concentration. The peptides were incubated for 48 h and the cell concentration was assayed by using the sulforhodamine B assay25 and optical density measurements. The growth inhibition (GI50) value24, measures the growth inhibitory power of the drug agent. The GI50 value is the concentration of the test drug for which the condition in Eq. S1 is met, where T is the optical density of the test well after a 48-h exposure to the peptide, T0 the optical density before applying the peptide drug and C the control optical density of a well where no peptide was applied.

COLO 205 = assay: NCI-60 screening; details: COLO 205 (Colon); log GI50; 48 h, sulforhodamine B, 10^-4 to 10^-8 M
Procedure: as §1, §2

EKVX = assay: NCI-60 screening; details: EKVX (Lung); log GI50; 48 h, sulforhodamine B, 10^-4 to 10^-8 M
Procedure: as §1, §2

HL-60 = assay: NCI-60 screening; details: HL-60 (Leukemia); log GI50; 48 h, sulforhodamine B, 10^-4 to 10^-8 M
Procedure: as §1, §2

HOP-92 = assay: NCI-60 screening; details: HOP-92 (Lung); log GI50; 48 h, sulforhodamine B, 10^-4 to 10^-8 M
Procedure: as §1, §2

MALME-3M = assay: NCI-60 screening; details: MALME-3M (Melanoma); log GI50; 48 h, sulforhodamine B, 10^-4 to 10^-8 M
Procedure: as §1, §2

PC-3 = assay: NCI-60 screening; details: PC-3 (Prostate); log GI50; 48 h, sulforhodamine B, 10^-4 to 10^-8 M
Procedure: as §1, §2

SK-MEL-2 = assay: NCI-60 screening; details: SK-MEL-2 (Melanoma); log GI50; 48 h, sulforhodamine B, 10^-4 to 10^-8 M
Procedure: as §1, §2

SW-620 = assay: NCI-60 screening; details: SW-620 (Colon); log GI50; 48 h, sulforhodamine B, 10^-4 to 10^-8 M
Procedure: as §1, §2

UACC-257 = assay: NCI-60 screening; details: UACC-257 (Melanoma); log GI50; 48 h, sulforhodamine B, 10^-4 to 10^-8 M
Procedure: as §1, §2

UACC-62 = assay: NCI-60 screening; details: UACC-62 (Melanoma); log GI50; 48 h, sulforhodamine B, 10^-4 to 10^-8 M
Procedure: as §1, §2

| Compound | morphological changes in the cell membrane and leakage of the cytosolic components, time after initial contact with the peptide (single MCF7 cells; calcein-AM and anti-EpCAM stained, as early as) [seconds] | time after which the encapsulated dye had leaked out, membrane deformations and blebbing (single MCF7 cells; calcein-AM stained) [s] | Log GI (M) (CAKI-1) | Log GI (M) (COLO 205) | Log GI (M) (EKVX) | Log GI (M) (HL-60) | Log GI (M) (HOP-92) | Log GI (M) (MALME-3M) | Log GI (M) (PC-3) | Log GI (M) (SK-MEL-2) | Log GI (M) (SW-620) | Log GI (M) (UACC-257) | Log GI (M) (UACC-62) |
| --- | --- | --- | --- | --- | --- | --- | --- | --- | --- | --- | --- | --- | --- |
| CC[C@H](C)[C@H](NC(=O)[C@H](CCCNC(=N)N)NC(=O)[C@H](Cc1c[nH]c2ccccc12)NC(=O)[C@@H](NC(=O)[C@H](CCCCN)NC(=O)[C@H](CCCCN)NC(=O)[C@@H](NC(=O)[C@@H](NC(=O)[C@@H](NC(=O)[C@H](CCCCN)NC(=O)[C@H](Cc1ccccc1)NC(=O)[C@H](CCCCN)NC(=O)[C@H](CCCCN)NC(=O)[C@H](Cc1ccccc1)NC(=O)[C@@H](NC(=O)[C@@H](N)CCCCN)[C@@H](C)CC)[C@@H](C)O)[C@@H](C)CC)[C@@H](C)CC)C(C)C)C(=O)N[C@@H](Cc1ccccc1)C(=O)NCC(=O)N[C@@H](CCCNC(=N)N)C(=O)N[C@@H](Cc1ccccc1)C(N)=O [AmphiArc2] (H-KIFKKFKTIIKKVWRIFGRF-NH2) | 30 | 95 | -5.71 | -5.58 | -5.73 | -5.28 | -5.70 | -5.89 | -5.66 | -5.58 | -5.59 | -5.54 | -5.69 |
| CC[C@H](C)[C@H](NC(=O)[C@H](CCCCN)NC(=O)[C@H](CCCCN)NC(=O)[C@@H](NC(=O)[C@@H](NC(=O)[C@@H](N)Cc1c[nH]cn1)[C@@H](C)CC)[C@@H](C)CC)C(=O)N[C@@H](CCCNC(=N)N)C(=O)N[C@H](C(=O)N[C@@H](Cc1c[nH]c2ccccc12)C(=O)N[C@@H](Cc1ccc(O)cc1)C(=O)N[C@@H](CCCNC(=N)N)C(=O)N[C@@H](CCCCN)C(=O)N[C@@H](C)C(=O)N[C@@H](Cc1c[nH]c2ccccc12)C(=O)N[C@@H](Cc1c[nH]cn1)C(=O)N[C@H](C(=O)N[C@@H](CC(C)C)C(=O)NCC(=O)N[C@@H](CCCCN)C(=O)N[C@H](C(N)=O)C(C)C)C(C)C)[C@@H](C)O [Off2] (H-HIIKKIRTWYRKAWHVLGKV-NH2) |  |  | -5.48 | -5.68 | -5.63 | -5.37 | -5.68 | -5.64 | -5.55 | -5.28 | -5.02 | -5.07 | -5.69 |
